From BindingDB's records for doi:10.7270/Q20Z71R6 (Burnham Center For Chemical Genomics, 2010)

Biological target: Alkaline phosphatase, placental type (Homo sapiens, UniProt P05187)
Assay: activation of placental alkaline phosphatase – biochemical, uHTS hits, luminescence, selectivity assay for human IAP activator project, dose response (AID 488888)

Alkaline phosphatase, placental type, sequence (P05187 whole entry, looked up): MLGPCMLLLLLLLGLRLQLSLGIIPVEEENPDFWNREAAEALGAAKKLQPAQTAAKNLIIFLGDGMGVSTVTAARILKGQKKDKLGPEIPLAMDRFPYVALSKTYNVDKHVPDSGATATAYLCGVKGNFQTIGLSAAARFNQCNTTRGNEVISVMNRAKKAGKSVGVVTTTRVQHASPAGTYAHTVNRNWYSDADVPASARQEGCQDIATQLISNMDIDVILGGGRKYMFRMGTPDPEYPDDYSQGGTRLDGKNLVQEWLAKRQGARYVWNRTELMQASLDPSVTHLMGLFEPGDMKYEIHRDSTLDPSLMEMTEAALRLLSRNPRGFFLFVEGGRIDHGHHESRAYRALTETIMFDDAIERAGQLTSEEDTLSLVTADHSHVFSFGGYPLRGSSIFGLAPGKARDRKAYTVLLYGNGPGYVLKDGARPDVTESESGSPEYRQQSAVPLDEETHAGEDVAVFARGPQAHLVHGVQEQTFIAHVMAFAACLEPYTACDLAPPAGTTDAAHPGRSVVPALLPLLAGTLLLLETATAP

Structure (SMILES) | EC50
Cc1c(C(=O)NN=Cc2ccc(O)cc2O)[nH][nH]c1=O | 13.2 µM
Cc1cc(Br)ccc1SCC(=O)OCC(=O)C(C#N)c1nc2ccccc2[nH]1 (stereo unspecified) [2-[(4-bromo-2-methylphenyl)thio]acetic acid [3-cyano-3-(1,3-dihydrobenzimidazol-2-ylidene)-2-oxopropyl] ester] | 25.5 µM
C=c1[nH]n(-c2nc3ccccc3[nH]2)c(=O)c1=CN(C)C [(4E)-2-(1H-benzimidazol-2-yl)-4-(dimethylaminomethylidene)-5-methyl-pyrazol-3-one] | 15.3 µM
CCc1ccc(CN=Nc2ncnc3nc[nH]c23)cc1 [MLS000419199] | 13.4 µM
Cn1c(C(C#N)C(=O)c2ccc(Br)s2)nc2ccccc21 (stereo unspecified) [MLS001167394] | 62.2 µM
COc1cccc(C=NNC(=O)c2[nH][nH]c(=O)c2C)c1O [N'-[(E)-(5-methoxy-6-oxidanylidene-cyclohexa-2,4-dien-1-ylidene)methyl]-4-methyl-5-oxidanylidene-1,4-dihydropyrazole-3-carbohydrazide] | 7.82 µM
O=c1c2ccccc2nc(N=NCc2c(O)ccc3ccccc23)n1O [SMR000145705] | 35.2 µM
O=C(Nn1c(O)csc1=S)C(=O)Nn1c(O)csc1=S [SMR000349781] | 14.5 µM
O=Nc1[nH]c(=O)c(CC(=O)c2ccccc2)nc1NO [SMR000539633] | 9.75 µM
CCOC(=O)c1c(C)[nH]c(C(=O)N/N=C/C2C=C([N+](=O)[O-])C=CC2=O)c1C (stereo unspecified) [ethyl 2,4-dimethyl-5-[[[(E)-(3-nitro-6-oxocyclohexa-2,4-dien-1-ylidene)methyl]amino]carbamoyl]-1H-pyrrole-3-carboxylate] | 23.2 µM
O=C(O)[C@H]1O[C@@H](Oc2c(-c3ccc(O)c(O)c3)oc3cc(O)cc(=O)c-3c2O)[C@H](O)[C@@H](O)[C@@H]1O [quercetin glucuronide] | > 100 µM
